Patent US6353002B2, “Therapeutic agents” (Knoll Aktiengesellschaft, priority 1997, dated 2002)
Counter-ions that a name gives are not always drawn.

target: T1, 5-HT1A receptors (Rattus norvegicus, UniProt P19327); test: Inhibition of [3H]8-OH-DPAT binding to 5-HT1A receptors in rat hippocampal tissue; conditions: ligand [3H]8-OH-DPAT 2 nM, 25° C., 30 minutes
T1 construct: Hippocampal tissue from the brains of male Charles River CD rats; from tissue; host or cells: rat hippocampus membrane homogenate
T1 sequence (P19327 1-422): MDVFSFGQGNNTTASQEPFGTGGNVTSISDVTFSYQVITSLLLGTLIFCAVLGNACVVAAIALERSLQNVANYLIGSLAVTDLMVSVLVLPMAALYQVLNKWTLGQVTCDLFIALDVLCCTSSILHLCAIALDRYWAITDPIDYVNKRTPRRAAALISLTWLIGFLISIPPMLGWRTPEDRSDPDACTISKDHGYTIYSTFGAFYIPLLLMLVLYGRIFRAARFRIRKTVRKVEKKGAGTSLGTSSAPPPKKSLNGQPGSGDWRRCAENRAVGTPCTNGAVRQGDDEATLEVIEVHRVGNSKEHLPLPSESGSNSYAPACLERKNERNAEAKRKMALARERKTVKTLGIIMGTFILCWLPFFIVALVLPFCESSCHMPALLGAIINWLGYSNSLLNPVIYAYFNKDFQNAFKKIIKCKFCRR
Experimental: Hippocampal tissue from the brains of male Charles River CD rats weighing between 150-250 g were homogenised in ice-cold 50 mM Tris-HCl buffer (pH 7.7) when measured at 25° C., 1:40 w/v) and centrifuged at 30,000 g at 4° C. for 10 minutes. The pellet was rehomogenised in the same buffer, incubated at 37° C. for 10 minutes and centrifuged at 30,000 g at 4° C. for 10 minutes. The final pellet was resuspended in 50 mM Tris-HCl buffer (pH 7.7) containing 4 mM CaCl2, 0.1% L-ascorbic acid and 10 μM pargyline hydrochloride (equivalent to 6.25 mg wet weight of tissue/ml) and used immediately in the binding assay. Aliquots (400 μl; equivalent to 2.5 mg wet weight of tissue/tube) of this suspension were added to tubes containing the ligand (50 μl; 2 nM) and distilled water (50 μl; total binding) or 5-HT (50 μl; 10 μM; non-specific binding) or test compound (50 μl; at a single concentration of 10^−8 M or at 10 concentrations ranging from 10^−11−10^−3 M). The ligand was [^3H]8-hydroxy-2-(dipropylamino)tetralin ([^3H]8-OH-DPAT) and the mixture was incubated at 25° C. for 30 minutes before the incubation was terminated by rapid filtration.
The filters were washed with ice-cold Tris-HCl buffer and dried. The filters were punched out into vials, scintillation fluid added and radioactivity determined by liquid scintillation counting. The percentage displacement of specific binding of the tritiated ligand was calculated for the single concentration (10^−6 M) of test compound. Displacement curves were then produced for those compounds which displaced ≧50% of specific binding of the tritiated ligand at 10^−6 M using a range of concentrations of the compound. The concentration which gave 50% inhibition of specific binding (IC50) was obtained from the curve. The inhibition coefficient Ki was then calculated using the formula [formula]
in which [ligand] is the concentration of the tritiated ligand used and KD is the equilibrium dissociation constant for the ligand.

| Structure (SMILES) | Ki |
| --- | --- |
| COc1ccccc1N1CCC(CNC[C@H]2COc3ccc4sccc4c3O2)CC1.O=C(O)/C=C/C(=O)O [Example 2, (S)-N-(2,3-dihydrothieno[3,2-f]-1,4-benzodioxin-2-ylmethyl)-1-[1-(2-methoxyphenyl)piperid-4-yl]methylamine monofumarate] | 9.7 nM |
| COc1ccccc1N1CCC(CNC[C@H]2COc3ccc4scc(Cl)c4c3O2)CC1 [Example 1, (S)-N-(9-chloro-2,3-dihydrothieno[3,2-f]-1,4-benzodioxin-2-ylmethyl)-1-[1-(2-methoxyphenyl)piperid-4-yl]methylamine 0.5 fumarate] | 36 nM |
| COc1ccccc1N1CCC(CNC[C@H]2COc3ccc4occc4c3O2)CC1 [Example 6, (S)-N-(2,3-dihydrofuro[3,2-f]-1,4-benzodioxin-2-ylmethyl)-1-[1-(2-methoxyphenyl)piperid-4-yl]methylamine monofumarate monohydrate] | 1.7 nM |
| COc1ccccc1N1CCC(CNC[C@H]2COc3ccc4[nH]ncc4c3O2)CC1 [Example 5, (S)-N-(2,3-dihydro-7H-1,4-dioxino[2,3-e]indazol-2-ylmethyl)-1-[1-(2-methoxyphenyl)piperid-4-yl]methylamine] | 1.2 nM |
| COc1ccccc1N1CCC(CNC[C@H]2COc3ccc4c(c3O2)OCO4)CC1 [Example 8, (S)-N-(7,8-methylenedioxy-2,3-dihydro-1,4-benzodioxin-2-ylmethyl)-1-[1-(2-methoxyphenyl)piperid-4-yl]methyl-amine monocitrate] | 1.1 nM |
| Oc1ccccc1N1CCC(CNC[C@H]2COc3ccc4occc4c3O2)CC1 [Example 7, (S)-2-{4-[(2,3-Dihydrofuro[3,2-f]-1,4-benzodioxin-2-ylmethyl)-aminomethyl]piperidino}phenol monofumarate 1.1 hydrate, 0.25 ethanol solvate] | 3.6 nM |

same assay, conditions: single concentration 10^−6 M of test compound, ligand [3H]8-OH-DPAT

| Structure (SMILES) | % displacement at 10^−6 M, 5-HT1A |
| --- | --- |
| COc1ccccc1N1CCC(CNC[C@H]2COc3ccc4[nH]ccc4c3O2)CC1 [Example 4, (S)-N-(2,3-dihydro-7H-1,4-dioxino[2,3-e]indol-2-ylmethyl)-1-[1-(2-methoxyphenyl)piperid-4-yl]methylamine 0.1 hydrate] | 99% |
| CCOC(=O)c1cc2c3c(ccc2[nH]1)OC[C@H](CNCC1CCN(c2ccccc2OC)CC1)O3 [Example 3, ethyl (S)-2,3-dihydro-2-(N-{[1-(2-methoxyphenyl)piperid-4-yl]methyl}aminomethyl)-7H-1,4-dioxino[2,3-e]indole-8-carboxylate 0.05 dichloromethane solvate] | 99% |

target: D2-like dopamine receptors (Rattus norvegicus, UniProt P61169); test: Inhibition of tritiated (S)-sulpiride binding to D2-like dopamine receptors in rat striatal tissue; conditions: ligand tritiated (S)-sulpiride 1 nM, 4° C., 40 minutes
Sequence (P61169 whole entry): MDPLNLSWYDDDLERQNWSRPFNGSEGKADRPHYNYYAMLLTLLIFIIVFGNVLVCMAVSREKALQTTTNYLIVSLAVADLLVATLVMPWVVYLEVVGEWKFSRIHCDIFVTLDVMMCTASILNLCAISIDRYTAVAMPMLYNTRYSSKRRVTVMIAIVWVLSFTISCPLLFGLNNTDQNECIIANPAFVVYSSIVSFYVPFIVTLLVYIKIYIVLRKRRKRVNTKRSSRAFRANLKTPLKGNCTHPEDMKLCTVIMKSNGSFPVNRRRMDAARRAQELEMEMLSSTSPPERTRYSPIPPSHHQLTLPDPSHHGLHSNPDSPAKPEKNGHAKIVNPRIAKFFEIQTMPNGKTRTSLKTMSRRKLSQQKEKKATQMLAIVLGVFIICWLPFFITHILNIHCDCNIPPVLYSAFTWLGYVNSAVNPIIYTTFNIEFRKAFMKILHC
Experimental: Striatal tissue from the brains of male Charles River CD rats weighing between 140-250 g were homogenised in ice-cold 50 mM Tris-HCl buffer (pH 7.7 when measured at 25° C.) and centrifuged at 40,000 g for 10 minutes. The pellet was resuspended in Tris salts buffer (50 mM Tris-HCl buffer containing 120 mM NaCl, 5 mM KCl, 2 mM CaCl2 and 1 mM MgCl2 with the addition of 6 mM ascorbic acid; pH 7.7 when measured at 25° C.), and again centrifuged at 40,000 g for 10 minutes. The final pellet was stored at −80° C. Before each test the pellet was resuspended in Tris salts buffer (equivalent to 2 mg wet weight of tissue/ml). […]
The filters were washed with ice-cold Tris-HCl buffer and dried. The filters were punched out in to vials, scintillation fluid added and were left for about 20 hours before being counted by scintillation spectrophotometry. The percentage displacement of specific binding of the tritiated ligand was calculated for the single concentration (10^−6M) of test compound. […] The inhibition coefficient Ki then calculated using the formula [formula] […]

| Structure (SMILES) | Ki |
| --- | --- |
| CCOC(=O)c1cc2c3c(ccc2[nH]1)OC[C@H](CNCC1CCN(c2ccccc2OC)CC1)O3 [Example 3, ethyl (S)-2,3-dihydro-2-(N-{[1-(2-methoxyphenyl)piperid-4-yl]methyl}aminomethyl)-7H-1,4-dioxino[2,3-e]indole-8-carboxylate 0.05 dichloromethane solvate] | 106 nM |

test system: not given; test: not given; conditions: not given

| Structure (SMILES) | melting point |
| --- | --- |
| Oc1ccccc1N1CCC(CNC[C@H]2COc3ccc4occc4c3O2)CC1 (as salt: fumarate) (hydrate or solvate) [Example 7, (S)-2-{4-[(2,3-Dihydrofuro[3,2-f]-1,4-benzodioxin-2-ylmethyl)-aminomethyl]piperidino}phenol monofumarate 1.1 hydrate, 0.25 ethanol solvate] | 88 to 89 °C |
| COc1ccccc1N1CCC(CNC[C@H]2COc3ccc4sccc4c3O2)CC1.O=C(O)/C=C/C(=O)O [Example 2, (S)-N-(2,3-dihydrothieno[3,2-f]-1,4-benzodioxin-2-ylmethyl)-1-[1-(2-methoxyphenyl)piperid-4-yl]methylamine monofumarate] | 180 to 182 °C |
| COc1ccccc1N1CCC(CNC[C@H]2COc3ccc4[nH]ccc4c3O2)CC1 (hydrate or solvate) [Example 4, (S)-N-(2,3-dihydro-7H-1,4-dioxino[2,3-e]indol-2-ylmethyl)-1-[1-(2-methoxyphenyl)piperid-4-yl]methylamine 0.1 hydrate] | 162 to 163 °C |
| COc1ccccc1N1CCC(CNC[C@H]2COc3ccc4occc4c3O2)CC1.O.O=C(O)/C=C/C(=O)O (hydrate or solvate) [Example 6, (S)-N-(2,3-dihydrofuro[3,2-f]-1,4-benzodioxin-2-ylmethyl)-1-[1-(2-methoxyphenyl)piperid-4-yl]methylamine monofumarate monohydrate] | 95 to 96 °C |
| COc1ccccc1N1CCC(CNC[C@H]2COc3ccc4scc(Cl)c4c3O2)CC1 (as salt: fumarate) [Example 1, (S)-N-(9-chloro-2,3-dihydrothieno[3,2-f]-1,4-benzodioxin-2-ylmethyl)-1-[1-(2-methoxyphenyl)piperid-4-yl]methylamine 0.5 fumarate] | 171 to 172 °C |
